{
  "source": "patent US12653899B2",
  "about": "“Multi-targeted, tunable, sustained delivery of payloads to charged avascular tissues” (Massachusetts Institute of Technology, priority 2019, dated 2026)",
  "tested_on": "human ankle cartilage explants",
  "assay": "Cumulative sGAG loss and final explant sGAG content (DMMB), human ankle cartilage dose response",
  "assay_type": "cell-based",
  "settings": "continuous free IGF-1; any of the three time points",
  "procedure": "Since each fusion protein had one IGF-1 domain, equivalent doses (39.2 nM) of these were tested. In addition to this, 500 nM, 1 μM and 2 μM doses of fusion proteins were also tested. In all cases, only a single dose of the fusion proteins was added at the start of the experiment, and media changes were carried out without fusion proteins once every 2 to 3 days thereafter. In contrast, continuous doses of free IGF-1 were used for the positive control. An untreated control group was also included in the experiments. Experiments were terminated at 3-day, 7-day and 15-day time points. Outcome measures included the biosynthesis rate of sulfated glycosaminoglycans (sGAG), explant metabolic rate, sGAG loss to the culture medium and the explant sGAG content at the end of the experiment.\nThe metabolic rate of cartilage explants was measured using the Alamar Blue assay (ThermoFisher). […] At the end of the incubation period, the absorbance of the medium at 570 nm and 600 nm was measured using a microplate reader (Synergy H1 Hybrid Multi-Mode Microplate Reader, BioTek). These readings were used to calculate the percentage reduction of Alamar Blue, which is directly proportional to the explant metabolic rate. […] Following this, the weight-normalized readings for the treatment groups were normalized by the weight-normalized mean value for the untreated controls. […]",
  "data": [
    {"substance": "IGF-1: free recombinant human IGF-1 (PeproTech), pro-anabolic growth factor used as the positive control", "values": [
      {"measurement": "final explant GAG content or cumulative GAG loss percent compared to the untreated control", "value": "did not have any change"}
    ]}
  ]
}
